Experimental data: US20190365700A1, “Methods for Isolating Tumor-Specific Immune Cells from a Subject for Adoptive Cell Therapy and Cancer Vaccines” (CRITITECH, INC., priority 2018, published 2019)
≈ marks a conversion by molar mass, not a printed value. Where “and” joins values, the source holds several entries; their conditions need not be identical. Equal entries are not always repeated. Marks after values point to notes of the source that are not given here.

Key:
[1] = test system: UM-UC-3 bladder cancer cell line (ATCC-CRL-1749) tumors; assay: Human bladder cancer (UM-UC-3) mouse xenograft study: tumor volume, body weight, observations; format: in vivo, Hsd:Athymic Nude-Foxnlnu nude mice
Description: Tumor volume was determined with calipers. […] Animals were weighed 2×/week.
At day 18 after tumor implant, when average tumor size was between 50-325 mm^3, animals were sorted into five groups with equal average tumor sizes and were treated as shown in Table 25 below.
The second treatments (2nd cycle) occurred 7 days following first treatment (1st cycle) and third treatments (3rd cycle) occurred 14 days following the first treatment. The docetaxel solution IV was administered via the tail vein.
Vehicle (Control): Diluted 1 ml of the 1% Polysorbate 80/8% Ethanol in normal saline (0.9% Sodium Chloride for Injection) reconstitution solution with 1.5 mL of normal saline (0.9% Sodium Chloride for Injection, USP). […] Vigorously hand shook the vial with inversions for 1 minute. […] Allowed the suspension to sit undisturbed for at least 5 minutes to reduce entrapped air and foam. […] Vortexed to mix.

[2] = test system: immune cells (CD45+, CD4+, CD8+, Treg, MDSC, M1 and M2 macrophages) in blood; assay: Renca study: flow cytometry of immune cells in blood; format: in vivo, female BALB/c mice; conditions: IV Docetaxel, individual animals
Description: Blood Collection: Collected full volume blood by terminal cardiac puncture under isoflurane anesthesia. Processed blood for: Whole Blood: anti-coagulant—K2EDTA, preservation—Cooled 4° C., shipping condition—4° C. (wet ice). Retained at CRL-NC for flow cytometry. See Flow panel in Table 40 below.
(§1) Peripheral blood and tumor tissue were collected for analysis via flow cytometry. Cell types analyzed included T-Cells: CD4+, CD8+(Tumor Suppression); Treg (Tumor Promotion); M1 Macrophages (Tumor Suppression); M2 Macrophages (Tumor Promotion); and […].

[3] = test system: Renca syngeneic renal carcinoma; assay: Renca syngeneic xenograft study: secondary tumor growth (groups 8-10); format: in vivo, female BALB/c mice; conditions: IV docetaxel doses
Description: The schedule in Table 39 was followed.
Cell Injection Volume: 0.1 mL/mouse. Age at Start Date: 8 to 12 weeks. […] Body Weight: 5/2 then tiwk to end. Caliper Measurement: tiwk to end. Double caliper measurements were performed for Groups 8-10. […] The group was not euthanized and recovery was allowed.
Endpoints: Groups 1-7: Endpoint TGI. Animals were monitored as a group.

[4] = test system: immune cells (CD45+, CD4+, CD8+, Treg, MDSC, M1 and M2 macrophages) in tumor tissue; assay: Renca study: flow cytometry of immune cells in tumor tissue; format: in vivo, female BALB/c mice; conditions: individual animals, IV docetaxel group
Description: Organ Collection: Tumor (divide into 2 parts). […] Sent to laboratory for IHC staining. Part 2: preservation—processed to single cell suspension, shipping condition—4° C. (wet ice). Retained at CRL-NC for flow cytometry. See Flow panel in Table 40 below. Tumor preservation for early euthanasia in Groups 2-10: Excised tumor and surrounding area from the mammary fat pad area (cranial) to just past tumor (caudal). The region included the inguinal lymph node. Sectioned this sample every 4 mm from the cranial to caudal end and enclosed in separate cassettes labeled in order.
as §1

[5] = test system: human renal cell adenocarcinoma (786-O cell line); assay: Rat xenograft model of human renal cell adenocarcinoma: tumor volume, body weight, observations; format: in vivo, Sprague-Dawley Rag2; Il2rg null (SRG®) rat; conditions: IV docetaxel, 3 weekly cycles
[6] = test system: human renal cell adenocarcinoma (786-O cell line); assay: Renal cell adenocarcinoma xenograft: histology and IHC (viable carcinoma size, necrosis, lymphohistiocytic infiltrate); format: in vivo, Sprague-Dawley Rag2; Il2rg null (SRG®) rat
From the text: Microscopic Examination: Tissues fixed with 10% NBF were embedded in paraffin. Each tumor was cut into 2-3 pieces and embedded and sectioned together.

[7] = test system: Renca syngeneic renal carcinoma
From the text: Animals were monitored as a group. […] When the endpoint was reached, all the animals were euthanized. […]

[8] = test system: UM-UC-3 bladder cancer cell line (ATCC-CRL-1749) tumors; assay: Bladder cancer xenograft: histology and IHC (viable carcinoma size, necrosis, macrophage infiltrate, TLS, necropsy volume); format: in vivo, Hsd:Athymic Nude-Foxnlnu nude mice
[9] = Solubility of the active in receptor fluid; format: physicochemical; conditions: 96 wt % PBS pH 7.4 and 4 wt % HPBCD
Description: The receptor fluid was degassed by filtering the receptor fluid through a ZapCap CR 0.2 μm membrane while pulling vacuum. The filtered receptor fluid was stirred for an additional 20 minutes while maintaining vacuum to ensure complete degassing.

[10] = IV Docetaxel 3 cycles, 2 animals
[11] = IV docetaxel 3 cycles, two cases

SMILES: CC(=O)O[C@@]12CO[C@@H]1C[C@H](O)[C@@]1(C)C(=O)[C@H](O)C3=C(C)[C@@H](OC(=O)[C@H](O)[C@@H](NC(=O)OC(C)(C)C)c4ccccc4)C[C@@](O)([C@@H](OC(=O)c4ccccc4)[C@H]21)C3(C)C [docetaxel]
- tumor volumes ([1]; Docetaxel IV 30 mg/kg, 3 cycles, 61 days): decreased initially
- effectiveness by initial tumor size ([1]; Docetaxel IV 3 cycles): somewhat effective at treating small tumors, but not very effective in treating large tumors
- initial animal weight loss ([1]; Docetaxel IV 3 cycles vs nDoce IT 1, 2, 3 cycles): generally greater
- signs of peripheral neuropathy ([1]; Docetaxel IV 3 cycles vs nDoce IT 3 cycles): greater signs of peripheral neuropathy
- CD8 (% of CD45) [2]: 1.18 % of CD45 and 1.46 % of CD45 and 1.58 % of CD45 and 1.55 % of CD45 and 1.59 % of CD45 and 0.55 % of CD45 and 1.28 % of CD45 and 1.03 % of CD45 and 1.02 % of CD45 and 0.73 % of CD45
- CD8 Count [2]: 17438 and 12556 and 18524 and 4199 and 7615 and 8711 and 14504 and 9765 and 8882 and 12561
- CD45 (% of Live) [2]: 98.5 % of Live and 80.9 % of Live and 97.9 % of Live and 95.7 % of Live (2×) and 96.1 % of Live and 95.5 % of Live and 95.6 % of Live and 97 % of Live and 96.4 % of Live
- CD45 Count [2]: 1360000 (2×) and 1180000 and 1200000 and 1010000 and 348468 and 983000 and 1340000 and 1210000 and 968000
- Conv CD4 (% of CD45) [2]: 2.49 % of CD45 and 3.95 % of CD45 and 3.1 % of CD45 and 2.64 % of CD45 and 2.38 % of CD45 and 1.58 % of CD45 and 3.25 % of CD45 and 1.32 % of CD45 and 2.46 % of CD45 and 1.77 % of CD45
- Conv CD4 Count [2]: 44244 and 33048 and 31633 and 9629 and 12646 and 22949 and 34177 and 22034 and 21457 and 27808
- Live Count [2]: 1420000 and 1220000 and 1250000 and 1030000 and 350478 and 1390000 and 1010000 and 1360000 and 1260000 and 997000
- M1 Mac (% of CD45) [2]: 15.1 % of CD45 and 9.39 % of CD45 and 12.3 % of CD45 and 6.95 % of CD45 and 7.96 % of CD45 and 6.79 % of CD45 and 9.93 % of CD45 and 10.7 % of CD45 and 9.78 % of CD45 and 9.15 % of CD45
- M1 Mac Count [2]: 135234 and 150642 and 83214 and 124451 and 18526 and 145555 and 84022 and 122157 and 110868 and 43948
- M2 Mac (% of CD45) [2]: 0.12 % of CD45 and 0.054 % of CD45 and 0.066 % of CD45 and 0.14 % of CD45 and 0.17 % of CD45 and 0.2 % of CD45 and 0.056 % of CD45 and 0.48 % of CD45 and 0.07 % of CD45 and 0.19 % of CD45
- M2 Mac Count [2]: 765 and 815 and 1633 and 582 and 373 and 875 and 257 and 2069 and 2323 and 512
- MDSC (% of CD45) [2]: 72.7 % of CD45 and 64.8 % of CD45 and 63.3 % of CD45 and 75.9 % of CD45 and 72.8 % of CD45 and 79 % of CD45 and 73.4 % of CD45 and 72.5 % of CD45 and 77.7 % of CD45 and 76.3 % of CD45
- MDSC Count [2]: 1000000 (2×) and 871000 and 909000 and 742000 and 255851 and 734000 (2×) and 1010000 and 925000
- Treg (% of CD45) [2]: 0.092 % of CD45 and 0.22 % of CD45 and 0.13 % of CD45 and 0.073 % of CD45 and 0.035 % of CD45 and 0.078 % of CD45 and 0.087 % of CD45 and 0.047 % of CD45 and 0.1 % of CD45 and 0.071 % of CD45
- Treg Count [2]: 1182 and 578 and 872 and 461 and 222 and 871 and 1300 and 870 and 856 and 992
- growth rate of the secondary Renca tumors [3]: did not reduce the growth rate
- CD8 (% of CD45) [4]: 0.75% and 0.5% and 0.28% and 0.31% (2×) and 0.061% and 0.32% and 0.45% and 0.81% and 0.33%
- CD8 Count [4]: 33 and 40 and 26 and 193 and 9 and 145 and 36 and 214 and 137 and 270
- CD45 (% of Live) [4]: 38.2% and 42.8% and 52.7% and 68.9% and 74.1% and 57.8% and 32.5% and 63.3% and 73% and 67.2%
- CD45 Count [4]: 4375 and 8052 and 9275 and 62614 and 14728 and 45332 and 8088 and 26310 and 41555 and 86029
- Conv CD4 (% of CD45) [4]: 1.23% and 1.15% and 1.51% and 0.44% and 0.16% and 0.58% and 0.62% and 2.55% and 1.65% and 0.59%
- Conv CD4 Count [4]: 54 and 93 and 140 and 275 and 23 and 265 and 50 and 670 and 687 and 509
- Live Count [4]: 11443 and 18796 and 17590 and 90940 and 19863 and 78365 and 24901 and 41595 and 56947 and 128055
- M1 Mac (% of CD45) [4]: 10.5% and 6.97% and 8.59% and 8.44% and 3.34% and 9.16% and 8.65% and 7.47%
- M1 Mac Count [4]: 460 and 561 and 797 and 5285 and 492 and 4154 and 700 and 3186 and 5446 and 6428
- M2 Mac (% of CD45) [4]: 28% and 25.2% and 18.6% and 25.3% and 2.66% and 54.1% and 8.62% and 26.9% and 52.8% and 67.2%
- M2 Mac Count [4]: 1223 and 2030 and 1727 and 15846 and 392 and 24543 and 697 and 7074 and 21953 and 57825
- MDSC (% of CD45) [4]: 25.1% and 32.8% and 42.5% and 44% and 83.3% and 20% and 70.4% and 37.3% and 10.4%
- MDSC Count [4]: 1098 and 2644 and 3940 and 27578 and 12265 and 9063 and 5696 and 9821 and 4302 and 11067
- Treg (% of CD45) [4]: 1.58% and 0.55% and 0.32% and 0.62% and 0.16% and 0.54% and 0.21% and 1.05% and 0.42% and 0.6%
- Treg Count [4]: 69 and 44 and 30 and 386 and 23 and 244 and 17 and 276 and 176 and 520
- tumor growth compared to vehicle control [5]: partial tumor growth inhibition
- histology vs vehicle control (H&E) ([6]; Docetaxel (IV) 3 cycles, female rat): no difference
- Number of animals with residual viable carcinoma >10 mm on slide ([6]; IV docetaxel, 2 animals): 2
- tumor volume compared to vehicle ([7]; IV docetaxel Day 1 (10 mg/kg) and Day 11 (5 mg/kg)): No difference
- toxicity leading to modified administration schedule ([7]; mouse, in vivo, iv): systemic toxicity
- general histological observation (H&E) ([8]; Docetaxel Solution IV 3 cycles): many viable appearing tumor masses with some macrophage and occasional lymphocytic response along with some tumor necrosis
- animals with 11-50% of tumor showing necrosis [8, 10]: 1
- animals with 50-90% of tumor showing necrosis [8, 10]: 1
- animals with maximum size of viable invasive carcinoma on the slide >10 mm [8, 10]: 2*
- Macrophage infiltrate density: number of animals graded Mild ([8]; IV Docetaxel 3 cycles, surrounding non-neoplastic tissue, H&E and CD68 IHC): 2
- TLSs [8, 11]: no TLSs present
- tumor masses, maximum dimension on the slide [8, 11]: 11 mm and 15 mm

SMILES: CC(=O)O[C@H]1C(=O)[C@@]2(C)[C@H]([C@H](OC(=O)c3ccccc3)[C@]3(O)C[C@H](OC(=O)[C@H](O)[C@@H](NC(=O)c4ccccc4)c4ccccc4)C(C)=C1C3(C)C)[C@]1(OC(C)=O)CO[C@@H]1C[C@@H]2O [paclitaxel]
- solubility in the receptor fluid [9]: ~0.4 µg/mL (≈ 0.468 µM)

SMILES: CC(=O)O[C@@]12CO[C@@H]1C[C@H](O)[C@@]1(C)C(=O)[C@H](O)C3=C(C)[C@@H](OC(=O)[C@H](O)[C@@H](NC(=O)OC(C)(C)C)c4ccccc4)C[C@@](O)([C@@H](OC(=O)c4ccccc4)[C@H]21)C3(C)C [Doce]
- Number of animals with <5% of tissue showing necrosis ([6]; IV docetaxel, 2 animals): 2
- Lymphohistiocytic infiltrate density: number of animals graded Mild ([6]; IV docetaxel, 2 animals, H/E and CD11b IHC): 2
